Results published in US10765114B2, “4-amino-6-(pyridyl and 2-substitutedphenyl)-picolinates and 6-amino-2-(pyridyl and 2-substitutedphenyl)-pyrimidine-4-carboxylates and their use as herbicides” (Dow AgroSciences LLC, priority 2013, dated 2020).

Assays:
Assay in all cases: Post-Emergent Test III (Wheat and Barley)
PAPRH (common poppy) = assay type: in vivo, Papaver rhoeas; conditions: for Visual Growth Reduction (%) 21 Days After Application, PAPRH: postemergence; for GR50, PAPRH: effective dose for growth reduction of 50 percent; for GR50, PAPRH / GR80, PAPRH / GR90, PAPRH: probit analysis; for GR80, PAPRH: effective dose for growth reduction of 80 percent; for GR90, PAPRH: effective dose for growth reduction of 90 percent
Procedure: (§1) Seeds of the desired test plant species were planted in Sun Gro MetroMix® 306 planting mixture, which typically has a pH of 6.0 to 6.8 and an organic matter content of about 30 percent, in plastic pots with a surface area of 103.2 square centimeters (cm^2). When required to ensure good germination and healthy plants, a fungicide treatment and/or other chemical or physical treatment was applied. The plants were grown for 7-36 days in a greenhouse with an approximate 14 h photoperiod which was maintained at about 18° C. during the day and 17° C. during the night. Nutrients and water were added on a regular basis and supplemental lighting was provided with overhead metal halide 1000-Watt lamps as necessary. The plants were employed for testing when they reached the second or third true leaf stage.
(§2) A weighed amount, determined by the highest rate to be tested, of each test compound was placed in a 25 mL glass vial and was dissolved in 4 mL of a 97:3 v/v mixture of acetone and DMSO to obtain concentrated stock solutions. […] The concentrated stock solutions obtained were diluted with 20 mL of an aqueous mixture containing acetone, water, isopropyl alcohol, DMSO, Agri-Dex crop oil concentrate, and X-77 surfactant in a 48:39:10:1.5:1.5:0.02 v/v ratio to obtain spray solutions containing the highest application rates. Additional application rates were obtained by serial dilution of 12 mL of the high rate solution into a solution containing 2 mL of 97:3 v/v mixture of acetone and DMSO and 10 mL of an aqueous mixture containing acetone, water, isopropyl alcohol, DMSO, Agri-Dex crop oil concentrate, and X-77 surfactant in a 48:39:10:1.5:1.5:0.02 v/v ratio to obtain ½×, ¼×, ⅛× and 1/16× rates of the high rate. Compound requirements are based upon a 12 mL application volume at a rate of 187 liters per hectare (L/ha). Formulated compounds were applied to the plant material with an overhead Mandel track sprayer equipped with 8002E nozzles calibrated to deliver 187 L/ha over an application area of 0.503 square meters at a spray height of 18 inches (43 cm) above the average plant canopy height. Control plants were sprayed in the same manner with the solvent blank.
(§3) The treated plants and control plants were placed in a greenhouse as described above and watered by subirrigation to prevent wash-off of the test compounds. After 21 dAYS, the condition of the test plants as compared with that of the untreated plants was determined visually and scored on a scale of 0 to 100 percent where 0 corresponds to no injury and 100 corresponds to complete kill and presented as indicated in Table A.
(§4) By applying the well-accepted probit analysis as described by J. Berkson in Journal of the American Statistical Society, 48, 565 (1953) and by D. Finney in “Probit Analysis” Cambridge University Press (1952), herbicidal injury of a specific compound at various rates can be used to calculate GR10, GR20, GR50, GR80 and GR90 values, which are defined as growth reduction factors that correspond to the effective dose of herbicide required to provide plant growth reduction (GR) of 10 percent, 20 percent, 50 percent, 80 percent and 90 percent, respectively. Probit analysis was applied to data collected from multiple dose rates of individual compounds utilizing the procedures explained in the following examples. The analysis of those dose rates is captured in the following tables.

[1] = test system: VERPE (Persian speedwell); assay type: in vivo, Veronica persica; conditions: for Visual Growth Reduction (%) 21 Days After Application, VERPE: postemergence; for GR50, VERPE: effective dose for growth reduction of 50 percent; for GR50, VERPE / GR80, VERPE / GR90, VERPE: probit analysis; for GR80, VERPE: effective dose for growth reduction of 80 percent; for GR90, VERPE: effective dose for growth reduction of 90 percent
Procedure: as §1, §2, §3, §4

[2] = test system: PHAMI (littleseed canarygrass); assay type: in vivo, Phalaris minor; conditions: for Visual Growth Reduction (%) 21 Days After Application, PHAMI: postemergence; for GR50, PHAMI: effective dose for growth reduction of 50 percent; for GR50, PHAMI / GR80, PHAMI / GR90, PHAMI: probit analysis; for GR80, PHAMI: effective dose for growth reduction of 80 percent; for GR90, PHAMI: effective dose for growth reduction of 90 percent
Procedure: as §1, §2, §3, §4

BROTE (downy brome) = assay type: in vivo, Bromus tectorum; conditions: for Visual Growth Reduction (%) 21 Days After Application, BROTE: postemergence; for GR50, BROTE: effective dose for growth reduction of 50 percent; for GR50, BROTE / GR80, BROTE / GR90, BROTE: probit analysis; for GR80, BROTE: effective dose for growth reduction of 80 percent; for GR90, BROTE: effective dose for growth reduction of 90 percent
Procedure: as §1, §2, §3, §4

Row | Structure (SMILES) | Visual Growth Reduction (%) 21 Days After Application, PAPRH (PAPRH (common poppy); 35 g ai/ha) | Visual Growth Reduction (%) 21 Days After Application, PAPRH (PAPRH (common poppy); 70 g ai/ha) | Visual Growth Reduction (%) 21 Days After Application, PAPRH (PAPRH (common poppy); 140 g ai/ha) | GR50, PAPRH (PAPRH (common poppy)) [g ai/ha] | GR80, PAPRH (PAPRH (common poppy)) [g ai/ha] | GR90, PAPRH (PAPRH (common poppy)) [g ai/ha] | Visual Growth Reduction (%) 21 Days After Application, VERPE ([1]; 35 g ai/ha) | Visual Growth Reduction (%) 21 Days After Application, VERPE ([1]; 70 g ai/ha) | Visual Growth Reduction (%) 21 Days After Application, VERPE ([1]; 140 g ai/ha) | GR50, VERPE [1] [g ai/ha] | GR80, VERPE [1] [g ai/ha] | GR90, VERPE [1] [g ai/ha] | Visual Growth Reduction (%) 21 Days After Application, PHAMI ([2]; 35 g ai/ha) | Visual Growth Reduction (%) 21 Days After Application, PHAMI ([2]; 70 g ai/ha) | Visual Growth Reduction (%) 21 Days After Application, PHAMI ([2]; 140 g ai/ha) | GR50, PHAMI [2] [g ai/ha] | GR80, PHAMI [2] [g ai/ha] | GR90, PHAMI [2] [g ai/ha] | Visual Growth Reduction (%) 21 Days After Application, BROTE (BROTE (downy brome); 35 g ai/ha) | Visual Growth Reduction (%) 21 Days After Application, BROTE (BROTE (downy brome); 70 g ai/ha) | further results
1 | Cc1c(-c2cc(N)c(Cl)c(C(=O)O)n2)ccc(Cl)c1F [Compound 52] | D (60-74) | D (60-74) | C (75-84) | 4 | >140 | >140 | G (0-29) | G (0-29) | E (45-59) | >140 | >140 | >140 | C (75-84) | B (85-94) | B (85-94) | 18 | 38 | 56 | G (0-29) | F (30-44) | Visual Growth Reduction (%) 21 Days After Application, BROTE (BROTE (downy brome); 140 g ai/ha): D (60-74); GR50, BROTE (BROTE (downy brome)): 98 g ai/ha; GR80, BROTE (BROTE (downy brome)): >140 g ai/ha; GR90, BROTE (BROTE (downy brome)): >140 g ai/ha
2 | COC(=O)c1nc(-c2ccc(Cl)c(F)c2C)cc(N)c1Cl [Compound 73] | D (60-74) | D (60-74) | A (95-100) | 15 | 48 | 90 | G (0-29) | G (0-29) | F (30-44) | >140 | >140 | >140 | D (60-74) | D (60-74) | C (75-84) | 40 | 107 | >140 | E (45-59) | D (60-74) | Visual Growth Reduction (%) 21 Days After Application, BROTE (BROTE (downy brome); 140 g ai/ha): D (60-74); GR50, BROTE (BROTE (downy brome)): 59 g ai/ha; GR80, BROTE (BROTE (downy brome)): >140 g ai/ha; GR90, BROTE (BROTE (downy brome)): >140 g ai/ha
